Experimental data reported in article PMC11039730, “In situ captured antibacterial action of membrane-incising peptide lamellae” (Nature Communications, 2024).
In brackets after ≈: the same amount, converted by molar mass. Like-named read-outs stand apart in the source and are kept apart here.

How the values were obtained:
[1] = tested on: BL21 DE3 Escherichia coli strain; type: cell-based
Procedure: To investigate the antimicrobial effect of lamellin-2K and lamellin-3K, we used the BL21 DE3 Escherichia coli strain with chromosomal resistance to chloramphenicol. The inoculum was grown overnight in the presence of 30 μM chloramphenicol. 0.5 mL of this inoculum was diluted into 50 mL fresh LB medium and grown till the optical density at 600 nm reached 0.5−0.6 indicating an exponential growth phase. Cells were then centrifuged at 3220 g at 4 °C for 20 min, washed twice in the assay medium (MQ water, 10 mM PBS, or 0.15 mM NaCl), then resuspended in 5 mL of the same medium. 10 μL cell suspension was diluted with the peptide solution to a final concentration of 250 μM, 125 μM, 60 μM, 30 μM, 10 μM, 5 μM, 1 μM and 0 μM (control) in 100 μl volume and incubated for 2 h in sterile, low-bind, U-bottom 96-well microplates (Greiner Bio-One, Hungary) with oxygen penetrating lid at 37 °C, at continuous shaking in a BioTek Synergy Mx plate reader. Aliquots from the wells were taken for the quantification of bacterial viability on LB agar plates after incubation at 37 °C for 16 h to obtain CFU/mL data. Treatments were performed in three biological replicates, each of which in three technical replicates.
Supplementary Figure 26: Antibacterial activity of 2K and 3K in the presence and absence of phosphate ions. a) Growth inhibition curves. Exponentially growing E. coli BL21 shaker cultures were exposed to the peptides at 37 °C in various media for 120 min. Treatments were performed in three biological replicates, each of which in three technical replicates. Data represent mean and error bars represent SEM. Data points are connected to guide the eye. b) Viability curves calculated from growth inhibition data in (a). Smooth lines are sigmoid fits to […]
Supplementary Table 6: Antimicrobial activity of 2K and 3K in various media. […]
* IC values are calculated from sigmoid fits to the viability vs. log(c) data points.
All errors are standard errors. […]

[2] = tested on: MonoMac 6 human monocytic cells; type: cell-based; details: 2 h, AlamarBlue, mean ± SEM, n = 4
Procedure: To evaluate the cytotoxicity of the compounds, AlamarBlue viability assay was performed on MonoMac 6 human monocytic cells (DSMZ no.: ACC 124, Braunschweig, Germany). […] Cells were maintained as an adherent culture in RPMI-1640 media (Lonza, Basel), supplemented with 10% FCS, L-glutamine (2 mM) and penicillin/streptomycin (50 IU/mL and 50 μg/mL) at 37 °C in a humidified atmosphere containing 5% CO2. On the day of the experiment, cells were washed twice with serum-free RPMI or with TRIS-HCl buffer (0.1 M, pH = 7.4) and plated in 96-well flat-bottom tissue culture plates (Sarstedt) (20,000 cells). 250 μM of the lamellin-3K was dissolved and serially diluted (125 μM, 62.5 μM, 31.25 μM, 15.63 μM, 7.81 μM, 3.91 μM, 1.95 μM) in the corresponding assay medium and added to the cells. The final concentration range was between 1.95 and 250 μM and the final volume was 100 μL. […] Following a 2 h of incubation, the fluorescence was measured at λEx = 530/30 and λEm = 610/10 nm using a Synergy H4 multi-mode microplate reader (BioTek). The percent of viability was calculated compared to untreated control wells. […] IC50 values were calculated from the dose-response curves, after fitting with sigmoidal funcion using the GraphPad Prism software package. […]
parallel experiments and error bars represent SEM. The viability percentage was calculated relative to the untreated […]

[3] = physchem; type: physicochemical; details: aqueous buffer
Procedure: For assignment purposes, appropriate amounts of lyophilized solid lamellin-2K (or lamellin-3K, respectively) were dissolved in H2O to prepare ~1 mM solutions, followed by 15 min sonication and addition of 10% D2O. For monitoring the effects of different solvents, the lyophilized lamellin-2K and lamellin-3K were dissolved in PBS, sonicated for 30 min, further on 10% D2O was added. For 2K, the concentration of the lamellin was ~250 μM and the solution contained PBS. […] After each addition, the solution was sonicated for 30 min. All samples were measured at 298 K. […]
Supplementary Figure 7: a) and b) Overlay of 1D 1H spectra in water (c = 1 mM, dark colour) and in PBS (light colour) for 2K (green) and 3K (blue), respectively. Concentration in PBS was ~ 250 µM for 2K and ~ 20 µM for 3K. c) and d) Regions of overlaid 1H-1H TOCSY (green) and 1H-1H ROESY (red) for 2K, indicating sequential connectivities. e) Variation of the 3K concentration during PBS titration determined from the integration of leucine […]

[4] = ANS binding fluorescence (assembly formation); type: physicochemical; details: 125 μM peptide, 2.5 μM ANS, mean of 3
Procedure: Fluorescence spectra were recorded using a JASCO FP-8500 spectrofluorometer with an excitation and emission bandwidth of 10 nm and 20 nm, respectively. Three accumulations were measured each time. The 8-anilino-1-naphthalenesulfonic acid (ANS) fluorophore was excited at 388 nm and the emission was recorded from 410 to 600 nm. Binding assays were performed using 125 μM peptide (50 μL) and 2.5 μM ANS. Spectra were corrected for those of the corresponding peptide solutions. page 11: Supplementary Figure 8: ANS binding capacity is higher for 3K and in phosphate media. ANS binding of 2K and 3K (125 μM) were tested in the indicated media using the ANS probe at 2.5 μM. The emission intensities at the maxima were read, and values were normalized for that of unbound ANS. Gray line highlights the reference signal of free ANS. In all tested media, higher ANS binding was detected for 3K over 2K. […] Error bars represent the standard deviation of the mean for three independent experiment sets. 11 (1 picture or pasted object on this page, not shown here)

[5] = 10 mM PBS, 2 h at 37 °C, CFU on LB agar, sigmoid fit, ± standard error, 3 biological replicates
[6] = NaCl (0.15 mM [sic] NaCl), 2 h at 37 °C, CFU on LB agar, sigmoid fit, ± standard error, 3 biological replicates

| IC50 ([1]; 10 mM PBS, 2 h at 37 °C, CFU on LB agar, sigmoid fit, ± standard error, 3 biological replicates, read-out: IC50) | IC50 ([1]; BL21, 2 h) | IC50 ([1]; MQ water (phosphate-free), 2 h at 37 °C, CFU on LB agar, sigmoid fit, ± standard error, 3 biological replicates, read-out: IC50) | solubility thermodynamic at 30 min [3] | ANS fluorescence, Mean ([4]; H2O) | ANS fluorescence, Mean ([4]; NaCl) | ANS fluorescence, Mean ([4]; PBS) | ANS fluorescence, Mean ([4]; phosphate) | SMILES | IC20 [1, 5] | IC80 [1, 5] | IC20 [1, 6] | IC80 [1, 6] | IC50 ([2]; RPMI (phosphate-containing, 5.6 mM Na2HPO4)) | IC50 ([2]; Tris-HCl (phosphate-free, 0.1 M, pH 7.4)) | IC80 ([1]; MQ water, 2 h at 37 °C, CFU on LB agar, sigmoid fit to viability vs log(c), ± standard error, 3 biological replicates) | IC20 ([1]; MQ water, 2 h at 37 °C, CFU on LB agar, sigmoid fit, ± standard error, 3 biological replicates) |
| --- | --- | --- | --- | --- | --- | --- | --- | --- | --- | --- | --- | --- | --- | --- | --- | --- |
| 11.6 ± 1.5 µM | 5.44 ± 0.91 µM | 1.24 µM | ~20 µM (≈ 23 µg/mL) | 3.21 arb. units | 7.78 arb. units | 14.27 arb. units | 19.27 arb. units | CCCC(=O)N[C@H](CC(=O)N[C@@H](CC(=O)N[C@@H](CCCCN)CC(=O)N[C@@H](CC(=O)N[C@@H](CCCCN)CC(=O)N[C@@H](CC(=O)N[C@@H](CCCCN)CC(=O)N[C@@H](CC(N)=O)CC(C)C)CC(C)C)CC(C)C)CC(C)C)CC(C)C [3K] | 9.27 ± 1.45 µM | 14.6 ± 1.46 µM | 4.22 ± 0.82 µM | 7 ± 1.02 µM | 126 ± 7.1 µM | 112 ± 8.4 µM | – | – |
| – | – | – | – | 1.52 arb. units | 1.24 arb. units | 5.15 arb. units | 11.66 arb. units | CCCC(=O)N[C@H](CC(=O)N[C@@H](CC(=O)N[C@@H](CCCCN)CC(=O)N[C@@H](CC(=O)N[C@@H](CCCCN)CC(=O)N[C@@H](CC(N)=O)CC(C)C)CC(C)C)CC(C)C)CC(C)C [2K] | 46.1 ± 4.07 µM | 77.7 ± 3.93 µM | 54 ± 12.2 µM | 74.2 ± 10.8 µM | – | – | 11.2 ± 0.373 µM | 7.06 ± 0.343 µM |
